Data on five compounds can be found in patent publication US6610846B1, “Heteroaromatic glucokinase activators” (Hoffman-La Roche Inc., priority 1999, dated 2003).

Each structure is given as a SMILES string.

The test system of one data set is C57BL/6J mice. Description: Glucokinase activator in vivo screen (blood glucose after oral dosing). Particulars: administered orally, 50 mg/kg, C57BL/6J mice fasted two hours; decrease in blood glucose compared to vehicle over six hours (Example B). As for the experimental part: Glucokinase Activator In Vivo Screen Protocol
C57BL/6J mice are orally dosed via gavage with Glucokinase (GK) activator at 50 mg/kg body weight following a two hour fasting period. Blood glucose determinations are made five times during the six hour post-dose study period. Mice (n=6) are weighed and fasted for a two hour period prior to oral treatment.

For orientation: melting point means the temperature, or range, at which the solid turns liquid. The compound `Cc1csc(NC(=O)[C@H](CC2CCCC2)c2ccc(S(C)(=O)=O)cc2)n1` [Example 128, 3-Cyclopentyl-2(R)-(4-methanesulfonyl-phenyl)-N-(4-methyl-thiazol-2-yl)-propionamide] displayed a melting point of 83 to 87 °C. Besides, the “glucokinase activator in vivo activity” value in the data set with C57BL/6J mice is given as “excellent glucokinase activator in vivo activity”.
For the compound `Cc1cnc(NC(=O)[C@H](CC2CCCC2)c2ccc(S(C)(=O)=O)cc2)s1` [Example 129, 3-Cyclopentyl-2(R)-(4-methanesulfonyl-phenyl)-N-(5-methyl-thiazol-2-yl)-propionamide], the melting point lay within 81 to 85 °C. For the same compound, in the data set with C57BL/6J mice, the “glucokinase activator in vivo activity” value is “excellent glucokinase activator in vivo activity”.
For `CS(=O)(=O)c1ccc(C(CC2CCCC2)C(=O)Nc2ncc(Cl)s2)cc1` (stereo not shown) [Example 130, N-(5-Chloro-thiazol-2-yl)-3-cyclopentyl-2-(4-methanesulfonyl-phenyl)-propionamide] the same measures were 76 to 79 °C and “excellent glucokinase activator in vivo activity”.
The compound `CS(=O)(=O)c1ccc([C@@H](CC2CCCC2)C(=O)Nc2ncc(Cl)s2)cc1` [Example 131, N-(5-Chloro-thiazol-2-yl)-3-cyclopentyl-2(R)-(4-methanesulfonyl-phenyl)-propionamide] registered a melting point of 83 to 88 °C. For the same compound, the “glucokinase activator in vivo activity” value in the data set with C57BL/6J mice is reported as “excellent glucokinase activator in vivo activity”.
`CS(=O)(=O)c1ccc([C@@H](CC2CCCC2)C(=O)Nc2ccncn2)cc1C(F)(F)F` [Example 157(A), 3-Cyclopentyl-2(R)-(4-methanesulfonyl-3-trifluoromethyl-phenyl)-N-pyrimidin-4-yl-propionamide] yielded a melting point of 85 to 90 °C. The “glucokinase activator in vivo activity” value in the data set with C57BL/6J mice is “excellent glucokinase activator in vivo activity”.
